Earlier results in patent US11389398B2, “Gastroretentive treatment of nocturnal symptoms and morning akinesia in subjects with parkinson's disease” (priority 2019, dated 2022).
Where two headings read alike, the source gives them in different places.

delay in the identification of circulating plasma levodopa levels after meals (controlled release tablets (Contin 1998)): 30 to 75 min | delay in the identification of circulating plasma levodopa levels after meals (immediate release tablets (Baruzzi 1987)): 29 to 60 min
Structure (SMILES): N[C@@H](Cc1ccc(O)c(O)c1)C(=O)O [levodopa, 3-hydroxy-L-Tyrosine]
